T/C data for 21 molecules are collected here from PubChem BioAssay AID330 (DTP/NCI, 2004).

Inconclusive results and toxic doses are left out. Peptide text beside a SMILES is read from it. * marks the point of attachment. Boc = CC(C)(C)OC(=O)*

For this experiment, the system named is P388 leukemia ip, CD2F1 mice, survival T/C. Briefly: NCI In Vivo Anticancer Drug Screen. Data for tumor model P388 Leukemia (intraperitoneal) in CD2F1 (CDF1) mice. The settings on record: endpoint: median survival time, higher = longer survival. The essentials:
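Mice carrying the transplanted tumor received test compound or vehicle. Survival was recorded in each group, and the value is the treated-group measurement divided by that of the vehicle-treated control group.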

Where [1] appears, read: dose: 12.5 mg/kg/injection, schedule: Q01DX009 (ip), vehicle: Klucel (hydroxypropylcellulose) (HPC).
Where [2] appears, read: dose: 25.0 mg/kg/injection, schedule: Q01DX009 (ip), vehicle: Klucel (hydroxypropylcellulose) (HPC).
[3] abbreviates: dose: 50.0 mg/kg/injection, schedule: Q01DX009 (ip), vehicle: Klucel (hydroxypropylcellulose) (HPC).
[4] abbreviates: dose: 100.0 mg/kg/injection, schedule: Q01DX009 (ip), vehicle: Klucel (hydroxypropylcellulose) (HPC).
[5] abbreviates: dose: 50.0 mg/kg/injection, schedule: Q01DX005 (ip), vehicle: Klucel (hydroxypropylcellulose) (HPC).
Setting [6] is: dose: 100.0 mg/kg/injection, schedule: Q01DX005 (ip), vehicle: Klucel (hydroxypropylcellulose) (HPC).
The mark [7] stands for this setting: dose: 200.0 mg/kg/injection, schedule: Q01DX005 (ip), vehicle: Klucel (hydroxypropylcellulose) (HPC).
[8] abbreviates: dose: 50.0 mg/kg/injection, schedule: Q01DX005 (ip), vehicle: saline.
[9] abbreviates: dose: 100.0 mg/kg/injection, schedule: Q01DX005 (ip), vehicle: saline.
Where [10] appears, read: dose: 200.0 mg/kg/injection, schedule: Q01DX005 (ip), vehicle: saline.
The mark [11] stands for this setting: dose: 12.5 mg/kg/injection, schedule: Q01DX009 (ip), vehicle: saline with Tween-80.
The mark [12] stands for this setting: dose: 25.0 mg/kg/injection, schedule: Q01DX009 (ip), vehicle: saline with Tween-80.
Where [13] appears, read: dose: 200.0 mg/kg/injection, schedule: Q01DX009 (ip), vehicle: Klucel (hydroxypropylcellulose) (HPC).
[14] abbreviates: dose: 50.0 mg/kg/injection, schedule: Q01DX005 (ip), vehicle: saline with Tween-80.
Setting [15] is: dose: 100.0 mg/kg/injection, schedule: Q01DX005 (ip), vehicle: saline with Tween-80.
Setting [16] is: dose: 200.0 mg/kg/injection, schedule: Q01DX005 (ip), vehicle: saline with Tween-80.

Regarding `C=C1C(=O)O[C@@H]2/C=C(/C)[C@@]3(O)C=C[C@](C)(C[C@@H](OC(=O)/C(=C\C)COC(C)=O)[C@@H]12)O3`, the T/C runs as follows: (dose: 2.5 mg/kg/injection, schedule: Q01DX009 (ip), vehicle: carboxymethylcellulose (CMC)) 106 % of control; (dose: 5.0 mg/kg/injection, schedule: Q01DX009 (ip), vehicle: carboxymethylcellulose (CMC)) 120 % of control; (dose: 10.0 mg/kg/injection, schedule: Q01DX009 (ip), vehicle: carboxymethylcellulose (CMC)) 101 % of control; (dose: 20.0 mg/kg/injection, schedule: Q01DX009 (ip), vehicle: carboxymethylcellulose (CMC)) 120 % of control.
Turning to `CC1(Cl)CC2OC3(Br)C=CC(C)(O)C2(CC1Br)C3(C)C` (stereo not given), the T/C was 101 % of control under setting [1], 100 % of control under setting [2], 100 % of control under setting [3] and 101 % of control under setting [4].
`COC(=O)CCSC(=O)NC(C)C`: the T/C was 99 % of control under setting [5], 102 % of control under setting [6] and 100 % of control under setting [7].
For `COc1ccc(N2C(=O)C(N=Nc3ccc(S(=O)(=O)Nc4ncccn4)cc3)C(=O)N(c3ccccc3)C2=S)cc1` (stereo not given), the T/C runs as follows: under setting [8], 103 % of control; under setting [9], 95 % of control; under setting [10], 98 % of control.
Regarding `C[n+]1ccc(Nc2ccc(NC(=O)c3ccc(Nc4cc[n+](C)c5ccc(N)cc45)cc3N)cc2)cc1`, the T/C is 111 % of control (dose: 0.18 mg/kg/injection, schedule: Q01DX009 (ip), vehicle: saline with Tween-80); 124 % of control (dose: 0.27 mg/kg/injection, schedule: Q01DX009 (ip), vehicle: saline with Tween-80); 157 % of control (dose: 1.0 mg/kg/injection, schedule: Q01DX009 (ip), vehicle: saline with Tween-80); 154 % of control (dose: 1.33 mg/kg/injection, schedule: Q01DX009 (ip), vehicle: saline with Tween-80); 163 % of control (dose: 1.5 mg/kg/injection, schedule: Q01DX009 (ip), vehicle: saline with Tween-80); 200 % of control (dose: 2.0 mg/kg/injection, schedule: Q01DX009 (ip), vehicle: saline with Tween-80). Further, the T/C is, setting by setting: (dose: 3.0 mg/kg/injection, schedule: Q01DX009 (ip), vehicle: saline with Tween-80) 245 % of control; (dose: 3.13 mg/kg/injection, schedule: Q01DX009 (ip), vehicle: saline with Tween-80) 271 % of control; (dose: 4.5 mg/kg/injection, schedule: Q01DX009 (ip), vehicle: saline with Tween-80) 257 % of control; (dose: 5.0 mg/kg/injection, schedule: Q04DX003 (ip), vehicle: saline with Tween-80) 154 % of control; (dose: 6.25 mg/kg/injection, schedule: Q01DX009 (ip), vehicle: saline with Tween-80) 274 % of control; (dose: 7.5 mg/kg/injection, schedule: Q04DX003 (ip), vehicle: saline with Tween-80) 163 % of control. The T/C by setting is: under setting [11], 275 % of control; under setting [12], 100 % of control.
Consider `CS(C)=NC(=Nc1ccccc1)c1ccccc1`, for which the T/C by setting is: (dose: 50.0 mg/kg/injection, schedule: Q04DX003 (ip), vehicle: saline with Tween-80) 101 % of control; (dose: 100.0 mg/kg/injection, schedule: Q04DX003 (ip), vehicle: saline with Tween-80) 104 % of control.
Regarding `COc1cccc2c1C(=O)OC2=O`, the T/C by setting is: under setting [1], 105 % of control; under setting [2], 105 % of control; under setting [3], 112 % of control; under setting [4], 97 % of control; under setting [13], 96 % of control.
Take `CC1(C)COC(c2cc(Br)ccc2Br)=N1`: the T/C under setting [11] is 100 % of control; the T/C under setting [12] was 102 % of control; the T/C (dose: 50.0 mg/kg/injection, schedule: Q01DX009 (ip), vehicle: saline with Tween-80) was 97 % of control; the T/C (dose: 100.0 mg/kg/injection, schedule: Q01DX009 (ip), vehicle: saline with Tween-80) is 97 % of control; the T/C (dose: 200.0 mg/kg/injection, schedule: Q01DX009 (ip), vehicle: saline with Tween-80) was 101 % of control.
Turning to `C/C(=C\c1ccc(Cl)cc1)C(=O)N1CCN(c2ccccc2)CC1`, the T/C by setting is: under setting [5], 105 % of control; under setting [6], 91 % of control; under setting [7], 96 % of control.
Take `FC(F)(F)C(OP(OC(C(F)(F)F)C(F)(F)F)OC(C(F)(F)F)C(F)(F)F)C(F)(F)F`: the T/C is 101 % of control under setting [14], 92 % of control under setting [15] and 92 % of control under setting [16].
Regarding `CC(C)(C)OC(=O)NCC(=O)NCC(=O)O` (Boc-Gly-Gly-OH), the T/C is, setting by setting: under setting [8], 102 % of control; under setting [9], 102 % of control; under setting [10], 101 % of control.
As to `CN(NC=O)C(=N)N`, the T/C is, setting by setting: (dose: 50.0 mg/kg/injection, schedule: Q01DX001 (ip), vehicle: saline) 109 % of control; (dose: 100.0 mg/kg/injection, schedule: Q01DX001 (ip), vehicle: saline) 100 % of control; (dose: 200.0 mg/kg/injection, schedule: Q01DX001 (ip), vehicle: saline) 102 % of control.
As to `CCOC(=O)C1=C(C(C)=O)C(c2ccc([N+](=O)[O-])cc2)C(C(C)=O)=C(C(=O)OCC)N1`, the T/C is, setting by setting: (dose: 7.5 mg/kg/injection, schedule: Q01DX005 (ip), vehicle: Klucel (hydroxypropylcellulose) (HPC)) 101 % of control; (dose: 15.0 mg/kg/injection, schedule: Q01DX005 (ip), vehicle: Klucel (hydroxypropylcellulose) (HPC)) 104 % of control; (dose: 30.0 mg/kg/injection, schedule: Q01DX005 (ip), vehicle: Klucel (hydroxypropylcellulose) (HPC)) 102 % of control.
Take `O=C(O)COc1ccc(I)cc1I`: the T/C was 110 % of control (dose: 100.0 mg/kg/injection, schedule: Q04DX003 (ip), vehicle: Klucel (hydroxypropylcellulose) (HPC)) and 91 % of control (dose: 200.0 mg/kg/injection, schedule: Q04DX003 (ip), vehicle: Klucel (hydroxypropylcellulose) (HPC)).
As to `Cc1cc(-c2cccc3ccccc23)[n+]([O-])cc1C`, the T/C was 101 % of control under setting [14], 101 % of control under setting [15] and 90 % of control under setting [16].
Turning to `COc1ccc(Cc2c(O)ccc3ccccc23)cc1`, the T/C is 104 % of control under setting [14], 104 % of control under setting [15] and 111 % of control under setting [16].
For `CCCCCCCC/C=C/CCCCCCCC(=O)N(CCOC(=O)C(C)(C)C)CCOC(=O)C(C)(C)C`, the T/C by setting is: under setting [3], 104 % of control; under setting [4], 112 % of control; under setting [13], 111 % of control.
In the case of `O=C(CO)C(OC1OC(CO)C(O)C(O)C1O)C(O)C(O)CO` (stereo not given), the T/C by setting is: under setting [8], 109 % of control; under setting [9], 97 % of control; under setting [10], 109 % of control.
For the molecule `CCOC(=O)C1C2(C(C)=O)C(C)=Nc3c(C#N)cnn3C12C(=O)OCC` (stereo not given), the T/C runs as follows: (dose: 6.25 mg/kg/injection, schedule: Q01DX005 (ip), vehicle: saline with Tween-80) 105 % of control; (dose: 12.5 mg/kg/injection, schedule: Q01DX005 (ip), vehicle: saline with Tween-80) 100 % of control; (dose: 25.0 mg/kg/injection, schedule: Q01DX005 (ip), vehicle: saline with Tween-80) 104 % of control; under setting [15], 92 % of control; under setting [16], 91 % of control.
For the molecule `O=c1c(O)c(-c2ccccc2)c1=O`, the T/C is 98 % of control (dose: 25.0 mg/kg/injection, schedule: Q01DX005 (ip), vehicle: Klucel (hydroxypropylcellulose) (HPC)); 100 % of control under setting [5]; 98 % of control under setting [6].
As for `Cc1ccc(C2=C/C(=C/c3ccc(N(CCC#N)CCC#N)cc3)C(=O)O2)cc1C`, the T/C is, setting by setting: (dose: 100.0 mg/kg/injection, schedule: Q01DX001 (ip), vehicle: saline with Tween-80) 94 % of control; (dose: 200.0 mg/kg/injection, schedule: Q01DX001 (ip), vehicle: saline with Tween-80) 90 % of control; (dose: 400.0 mg/kg/injection, schedule: Q01DX001 (ip), vehicle: saline with Tween-80) 97 % of control.
